Experimental findings from patent US8785381B2 (Emisphere Technologies, Inc., priority 2003, dated 2014) are described below.

A short description of the series: in vivo. To be noted: male, Sprague-Dawley, rat.

For orientation: Cmax means the highest concentration seen after dosing. With `CC[C@H](C)[C@H](NC(=O)[C@H](Cc1ccccc1)NC(=O)[C@H](CCC(=O)O)NC(=O)[C@H](CCCCN)NC(=O)[C@H](C)NC(=O)[C@H](C)NC(=O)[C@H](CCC(N)=O)NC(=O)CNC(=O)[C@H](CCC(=O)O)NC(=O)[C@H](CC(C)C)NC(=O)[C@H](Cc1ccc(O)cc1)NC(=O)[C@H](CO)NC(=O)[C@H](CO)NC(=O)[C@@H](NC(=O)[C@H](CC(=O)O)NC(=O)[C@H](CO)NC(=O)[C@@H](NC(=O)[C@H](Cc1ccccc1)NC(=O)[C@@H](NC(=O)CNC(=O)[C@H](CCC(=O)O)NC(=O)[C@H](C)NC(=O)[C@@H](N)Cc1c[nH]cn1)[C@@H](C)O)[C@@H](C)O)C(C)C)C(=O)N[C@@H](C)C(=O)N[C@@H](Cc1c[nH]c2ccccc12)C(=O)N[C@@H](CC(C)C)C(=O)N[C@H](C(=O)N[C@@H](CCCCN)C(=O)NCC(=O)N[C@@H](CCCNC(=N)N)C(N)=O)C(C)C` [GLP-1], the Cmax by setting is: (1 ng/kg) 0.0314 ng/mL; (2 ng/kg) 0.0324 ng/mL; (3 ng/kg) 0.0175 ng/mL; (10 ng/kg) 0.0171 ng/mL; (50 ng/kg) 0.153 ng/mL; (0.5 mg/kg) 27.9 ng/mL. For the same compound, the Cmax (500 μg/kg) was 0.106 ng/mL.
